According to patent publication US20250066329A1, “PIPERIDINYLPYRIDINYLCARBONITRILE DERIVATIVES AS INHIBITORS OF GLUTAMINYL-PEPTIDE CYCLOTRANSFERASE AND GLUTAMINYL-PEPTIDE CYCLOTRANSFERASE LIKE PROTEIN” (Boehringer Ingelheim International GmbH, priority 2023, published 2025):
Read-outs that look alike come from different tables or passages of the source.

Legend:
[1] = tested on: SIRPα signalling induced by A549 cells; test: Assay B: SIRPα signalling assay using A549 cells; type: cell-based; conditions: Homo sapiens, read-out: Inhibition of SIRPα signalling induced by A549 cells: IC50
Description: (§1) Two cell types are independently used: the Raji cell line (lymphoblast-like human cell line derived from B lymphocytes from a Burkitt's lymphoma patient in 1963) and A549 cells (adenocarcinomic human alveolar basal epithelial cells).
(§2) Test compounds were dissolved in 100% DMSO and serially diluted into a white 384-well microtiter cell culture plate (PerkinElmer #60076780 in case of Raji assay; PDL-coated plates Greiner #781945 in case of A549 assay). 5000 Raji cells (ATCC #CC86) or 5000 A549 cells (ATCC #CCL-185) in Assay Complete Cell Plating reagent 30 (DiscoverX 93-0563R30B) were added per well. The assay plate was incubated for 48 h at 37° C., 95% humidity and 5% CO2. 15000 reporter cells (Jurkat PathHunter SIRPαV1, DiscoverX #93-1135C19) were added to each well, and the plate was incubated for 5 h at 37° C., 95% humidity and 5% CO2. Bioassay reagent 1 of the PathHunter Bioassay detection kit (DiscoverX 93-0001) was added to each well of the plate using a multichannel pipette followed by a 15 min incubation at room temperature. Afterwards bioassay reagent 2 was added followed by 60 min incubation at room temperature (incubation in the dark). The analysis of the data was performed using the luminescence signal generated by beta-galactosidase in the PathHunter reporter cell line. The luminescence measurement was done using a Pherastar Multi-Mode Reader. Dose-response curves & IC50 data were calculated with 4-parameter sigmoidal dose response formula.

QPCT = target: T1, QPCT (Homo sapiens, UniProt Q16769); test: Assay A: biochemical QPCT activity assay (MALDI-TOF MS, CD47 peptide substrate); conditions: 0.5 nM enzyme, 20 μM CD47 peptide substrate; read-out: Inhibition of QPCT: IC50
T1 construct: purchased Origine (OriGene) TP700028
T1 sequence (Q16769 29-361): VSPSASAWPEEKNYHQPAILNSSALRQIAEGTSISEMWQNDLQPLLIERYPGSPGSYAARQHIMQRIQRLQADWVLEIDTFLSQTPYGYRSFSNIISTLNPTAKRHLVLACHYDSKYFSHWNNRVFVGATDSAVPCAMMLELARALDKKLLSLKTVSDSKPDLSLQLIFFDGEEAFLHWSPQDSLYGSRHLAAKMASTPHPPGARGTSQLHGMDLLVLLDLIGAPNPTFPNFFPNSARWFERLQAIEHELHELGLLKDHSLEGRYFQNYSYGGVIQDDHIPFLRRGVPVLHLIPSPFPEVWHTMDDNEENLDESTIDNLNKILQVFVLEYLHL
Description: (§3) QPCT or QPCTL dependent conversion of N-terminal glutamine to pyroglutamate of CD47 was monitored via MALDI-TOF MS. Test compounds were dissolved in 100% DMSO and serially diluted into clear 1,536-well microtiter plates. Enzymatic reactions were set up in assay buffer containing 20 mM Tris pH 7.5, 0.1 mM TCEP, 0.01% BSA, and 0.001% Tween20. […] The plates were incubated for 10 min in a humidified incubator at 24° C. Subsequently, 2.5 μL of CD47 peptide substrate surrogate (^19[…]^33) was added to each well (final concentration: 10 μM for QPCTL/20 μM for QPCT). The plates were mixed for 30 sec at 1,000 rpm and subsequently incubated for 40 min in a humidified incubator at 24° C. […] The plates were sealed with an adhesive foil, mixed for 30 s at 1,000 rpm and stored at room temperature until preparation of the MALDI target plates. […] QPCT or QPCTL activity was monitored by calculating the ratio between product and internal standard signals followed by normalization to high (100% activity) and low (0% activity) controls. Determination of compound potencies was obtained by fitting the dose-response data to a four-parameter logistical equation.

QPCTL = target: T2, QPCTL (Homo sapiens, UniProt Q9NXS2); test: Assay A: biochemical QPCTL activity assay (MALDI-TOF MS, CD47 peptide substrate); conditions: 0.5 nM enzyme, 10 μM CD47 peptide substrate; read-out: Inhibition of QPCTL: IC50
T2 construct: made in house
T2 sequence (Q9NXS2 whole entry): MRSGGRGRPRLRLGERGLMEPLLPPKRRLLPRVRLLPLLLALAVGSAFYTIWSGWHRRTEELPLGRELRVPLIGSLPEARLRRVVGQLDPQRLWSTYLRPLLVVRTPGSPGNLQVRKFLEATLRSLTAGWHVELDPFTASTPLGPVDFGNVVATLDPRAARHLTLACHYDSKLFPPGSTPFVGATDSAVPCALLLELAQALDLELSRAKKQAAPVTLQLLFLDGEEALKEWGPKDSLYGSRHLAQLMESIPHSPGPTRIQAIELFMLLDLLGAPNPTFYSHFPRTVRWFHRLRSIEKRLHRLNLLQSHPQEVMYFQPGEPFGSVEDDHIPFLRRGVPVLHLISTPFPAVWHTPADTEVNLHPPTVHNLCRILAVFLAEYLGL
Description: as §3

[2] = Assay C: permeability in CACO-2 cells; type: in vitro ADME; conditions: human, pH 7.2; for efflux ratio at 2 h: Caco-2, permeability B-A/permeability A-B; for Papp A→B at 2 h: Caco-2, apical to basolateral
Description: Caco-2 cells (1-2×10^5 cells/1 cm^2 area) are seeded on filter inserts (Costar transwell polycarbonate or PET filters, 0.4 µm pore size) and cultured (DMEM) for 10 to 25 days. Compounds are dissolved in appropriate solvent (like DMSO, 1-20 mM stock solutions). […] The transport solution (TL) is applied to the apical or basolateral donor side for measuring A-B or B-A permeability (3 filter replicates), respectively. Samples are collected at the start and end of experiment from the donor and at various time intervals for up to 2 hours also from the receiver side for concentration measurement by HPLC-MS/MS or scintillation counting. Sampled receiver volumes are replaced with fresh receiver solution.
Efflux ratio (ER)=permeability B-A/permeability A-B

[3] = tested on: SIRPα signalling induced by Raji cells; test: Assay B: SIRPα signalling assay using Raji cells; type: cell-based; conditions: Homo sapiens, read-out: Inhibition of SIRPα signalling induced by Raji cells: IC50
Description: as §1, §2

[4] = A549 cells, 48 h compound incubation, PathHunter SIRPαV1 reporter cells
[5] = Raji cells, 48 h compound incubation, PathHunter SIRPαV1 reporter cells

SMILES | IC50 [1, 4] | IC50 (QPCT) | IC50 (QPCTL) | efflux ratio at 2 h [2] | Papp A→B at 2 h [2] | IC50 [3, 5] | IC50 ([1]; A549, 48 h) | IC50 ([3]; Raji, 48 h)
C[C@@H]1C[C@H](c2nncn2C)CCN1c1c(C#N)cc(C(F)(F)F)nc1-c1ccc(F)nc1 [Example 10, 6′-fluoro-3-[(2R,4R)-2-methyl-4-(4-methyl-4H-1,2,4-triazol-3-yl)piperidin-1-yl]-6-(trifluoromethyl)-[2,3′-bipyridine]-4-carbonitrile] | 0.111 µM | 0.023 µM | 0.01 µM | 5.8 | 7.8 ×10⁻⁶ cm/s | 1.1 µM |  | 
Cn1cnnc1C1CCN(c2c(C#N)cc(C(F)(F)F)nc2-c2ccc(F)nc2)C2(CC2)C1 (racemic) [Example 17] | 0.086 µM | 0.013 µM | 0.003 µM | 10.4 | 5.1 ×10⁻⁶ cm/s | 0.246 µM |  | 
C[C@@H]1C[C@H](c2nncn2C)CCN1c1c(C#N)ccnc1-c1ccc(F)nc1 (racemic) [Example 11] |  | 0.027 µM | 0.003 µM |  |  | 0.089 µM |  | 
Cc1cnnn1C1CCN(c2ncccc2-c2ccc(F)nc2)CC1 [Example 3] | 0.921 µM | 0.482 µM | 0.052 µM | 0.8 | 93 ×10⁻⁶ cm/s | 2.74 µM |  | 
C[C@@H]1C[C@](F)(c2nncn2C)CCN1c1c(C#N)cc(C(F)(F)F)nc1-c1ccnnc1 [Example 15] | 0.486 µM | 0.024 µM | 0.014 µM | 9.4 | 3.3 ×10⁻⁶ cm/s | 0.837 µM |  | 
C[C@@H]1C[C@](F)(c2nncn2C)CCN1c1c(C#N)cc(C(F)(F)F)nc1-c1ccc(F)nc1 [Example 14] | 0.232 µM | 0.024 µM | 0.016 µM | 1.2 | 58 ×10⁻⁶ cm/s | 0.621 µM |  | 
C[C@@H]1C[C@](F)(c2nncn2C)CCN1c1c(C#N)ccnc1-c1ccc(F)nc1 [Example 13] | 0.236 µM | 0.014 µM | 0.006 µM | 2.4 | 22 ×10⁻⁶ cm/s | 0.301 µM |  | 
C[C@H]1C[C@H](c2nncn2C)CCN1c1c(C#N)cc(C(F)(F)F)nc1-c1ccc(F)nc1 [Example 4, 6′-fluoro-3-[(2S,4R)-2-methyl-4-(4-methyl-4H-1,2,4-triazol-3-yl)piperidin-1-yl]-6-(trifluoromethyl)-[2,3′-bipyridine]-4-carbonitrile] |  | 0.074 µM | 0.006 µM | 4.6 | 15 ×10⁻⁶ cm/s | 0.925 µM |  | 
Cn1cnnc1C1CCN(c2ncccc2-c2ccc(F)nc2)CC1 [SEN177, reference compound] |  |  |  |  |  |  | 0.214 µM | 1.36 µM
CC[C@@H]1C[C@H](c2nncn2C)CCN1c1c(C#N)cc(C(F)(F)F)nc1-c1ccc(F)nc1 [Example 9] | 0.109 µM | 0.05 µM | 0.018 µM | 3.8 | 22 ×10⁻⁶ cm/s | 0.325 µM |  | 

Further compounds by falling IC50 (QPCT), results first:

IC50 [1, 4] | IC50 (QPCT) | IC50 (QPCTL) | efflux ratio at 2 h [2] | Papp A→B at 2 h [2] | IC50 [3, 5] | SMILES | IC50 ([1]; A549, 48 h) | IC50 ([3]; Raji, 48 h)
0.047 µM | 0.006 µM | 0.001 µM | 3.3 | 22 ×10⁻⁶ cm/s | 0.047 µM | Cn1cnnc1[C@@H]1CCN(c2c(C#N)cc(C(F)(F)F)nc2-c2ccc(F)nc2)[C@H](C2CC2)C1 [Example 8] |  | 
0.074 µM | 0.005 µM | 0.007 µM | 7.1 | 9.2 ×10⁻⁶ cm/s | 0.124 µM | C[C@@H]1C[C@](F)(c2nncn2C)CCN1c1c(C#N)cc(C(F)(F)F)nc1-c1cnc2nn(C(C)(C)C)cc2c1 [Example 16] |  | 
0.551 µM | 0.003 µM | 0.002 µM | 8.4 | 0.2 ×10⁻⁶ cm/s | 0.54 µM | C[C@H]1C[C@H](c2nncn2C)CCN1c1c(C#N)ccnc1-c1ccnnc1 [Example 6, 3-[(2S,4R)-2-methyl-4-(4-methyl-4H-1,2,4-triazol-3-yl)piperidin-1-yl]-2-(pyridazin-4-yl)pyridine-4-carbonitrile] |  | 
0.041 µM | 0.002 µM | 0.002 µM | 6.1 | 13 ×10⁻⁶ cm/s | 0.066 µM | Cn1cnnc1[C@@H]1CCN(c2c(C#N)cc(C(F)(F)F)nc2-c2ccc(F)nc2)[C@@H](C2CC2)C1 (racemic) [Example 2, (rac)-3-[trans-2-cyclopropyl-4-(4-methyl-4H-1,2,4-triazol-3-yl)piperidin-1-yl]-6′-fluoro-6-(trifluoromethyl)-[2,3′-bipyridine]-4-carbonitrile] |  | 
0.027 µM | 0.002 µM | 0.001 µM | 4.4 | 17 ×10⁻⁶ cm/s | 0.027 µM | Cn1cnnc1[C@@H]1CCN(c2c(C#N)cc(C(F)(F)F)nc2-c2ccc(F)nc2)[C@@H](C2CC2)C1 [Example 1, 3-[(2R,4R)-2-cyclopropyl-4-(4-methyl-4H-1,2,4-triazol-3-yl)piperidin-1-yl]-6′-fluoro-6-(trifluoromethyl)-[2,3′-bipyridine]-4-carbonitrile] |  | 
0.057 µM | 0.002 µM | 0.001 µM | 5 | 3.6 ×10⁻⁶ cm/s | 0.048 µM | C[C@H]1C[C@H](c2nncn2C)CCN1c1c(C#N)ccnc1-c1ccc(F)nc1 [Example 5, 6′-fluoro-3-[(2S,4R)-2-methyl-4-(4-methyl-4H-1,2,4-triazol-3-yl)piperidin-1-yl]-[2,3′-bipyridine]-4-carbonitrile] |  | 
0.011 µM | 0.001 µM | 0.001 µM | 39.1 | 1.1 ×10⁻⁶ cm/s | 0.011 µM | Cn1cnnc1[C@@H]1CCN(c2c(C#N)cc(C(F)(F)F)nc2-c2cnc3nn(C(C)(C)C)cc3c2)[C@@H](C2CC2)C1 (racemic) [Example 3] |  | 
0.012 µM | 0.001 µM | 0.001 µM | 23.5 | 2 ×10⁻⁶ cm/s | 0.009 µM | Cn1cnnc1[C@@H]1CCN(c2c(C#N)cc(C(F)(F)F)nc2-c2cnc3nn(C(C)(C)C)cc3c2)[C@H](C2CC2)C1 [Example 7, 2-{2-tert-butyl-2H-pyrazolo[3,4-b]pyridin-5-yl}-3-[(2S,4R)-2-cyclopropyl-4-(4-methyl-4H-1,2,4-triazol-3-yl)piperidin-1-yl]-6-(trifluoromethyl)pyridine-4-carbonitrile] |  | 
